Paper PMC12469161, “Anti-cancer compound screening identifies Aurora Kinase A inhibition as a means to favor CRISPR/Cas9 gene correction over knock-out” (PLOS One, 2025)

test system: HEK293T-eGFP cells; assay: MTT cytotoxicity assay, 72 hours; type: cell-based; details: 72 h; HEK293T-eGFP cells, 3 days of incubation, MTT; read-out: IC50
Description: Cells were cultured for 16–24 hours under standard culturing conditions (5% CO2, 37 °C). […] All dose ranges were added in duplicate, followed by 72 hours of incubation. Cell viability was determined using a tetrazolium based metabolic activity assay. Briefly, 5 µL of 3-(4.5-dimethylthiazol-2-yl)-2,5-diphenyltetrazolium bromide (MTT) solution (5 mg/mL MTT in sterile PBS) was added per well, and the microplates were incubated for 4 hours at 37°C and 5% CO2 in a cell culture incubator. Next, 40 µL of 10% SDS/0.01 M HCl was added per well, and the microplates were incubated for 24–72 hours at 37°C and 5% CO2 in a cell culture incubator. Subsequently the absorbance at 570 nm and background absorbance at 720 nm were measured using the Spectramax i3x (Molecular Devices, San Jose, USA). Subsequently, the absorbance values at 720 nm were subtracted from the absorbance values at 570 nm, and the corresponding values were used to plot dose-response curves.
The data was normalized to the DMSO-treated cells (defined as 100% viability) and the empty controls (defined as 0% viability).

Compound | IC50
Oc1nc(-c2ccc(C(F)(F)F)cc2)nc2c1CSCC2 [XAV-939] | > 10000 nM
C[C@@H]1COCCN1c1cc(C2([S@](C)(=N)=O)CC2)nc(-c2cc[nH]c3nccc2-3)n1 [Ceralasertib] | 1840 nM
CNCc1ccc(-c2cc(-c3nc(-c4ccc(S(=O)(=O)C(C)C)cc4)cnc3N)on2)cc1 [Berzosertib] | 335 nM
O=c1cc(-c2cccc3c2Sc2ccccc2S3)oc(N2CCOCC2)c1 [KU-55933] | > 10000 nM
CC(=O)O[C@H]1C(=O)[C@@]2(C)[C@H]([C@H](OC(=O)c3ccccc3)[C@]3(O)C[C@H](OC(=O)[C@H](O)[C@@H](NC(=O)c4ccccc4)c4ccccc4)C(C)=C1C3(C)C)[C@]1(OC(C)=O)CO[C@@H]1C[C@@H]2O [Paclitaxel] | 3.12 nM
CC[C@H](Nc1nc(NCc2cnc(C)cc2C)c2ncn(C(C)C)c2n1)[C@@H](C)O [CYC065] | 255 nM
CN(C)C/C=C/C(=O)Nc1ccc(C(=O)N2CCC[C@@H](Nc3ncc(Cl)c(-c4c[nH]c5ccccc45)n3)C2)cc1 [THZ531] | 352 nM
CC[C@@H]1C(=O)N(C)c2cnc(Nc3ccc(C(=O)N[C@H]4CC[C@H](N5CCN(CC6CC6)CC5)CC4)cc3OC)nc2N1C(C)C [Volasertib] | 24.5 nM
C=CCn1c(=O)c2cnc(Nc3ccc(N4CCN(C)CC4)cc3)nc2n1-c1cccc(C(C)(C)O)n1 [Adavosertib] | 227 nM
C[C@@H](NC(=O)c1ncnc(N)c1Cl)c1ncc(C(=O)Nc2cc(C(F)(F)F)c(Cl)cn2)s1 [TAK-580] | > 10000 nM
Cc1ncc(Cl)cc1NCc1ccc(C(=O)N[C@@H](CC2CCCC2)C(=O)NC2CC2)s1 [GSK2830371] | > 10000 nM
Cc1sc2c(c1C)C(c1ccc(Cl)cc1)=N[C@@H](CC(=O)Nc1ccc(O)cc1)c1nnc(C)n1-2 [Birabresib] | 540 nM
NS(=O)(=O)OC[C@@H]1C[C@@H](n2ccc3c(N[C@H]4CCc5ccccc54)ncnc32)C[C@@H]1O [Pevonedistat] | 4740 nM
O=C(NC1CCNCC1)c1[nH]ncc1NC(=O)c1c(Cl)cccc1Cl [AT7519] | 438 nM
C[C@@H](Oc1cc(-n2cnc3ccc(CN4CCN(C)CC4)cc32)sc1C(N)=O)c1ccccc1C(F)(F)F [GSK461364] | 8.35 nM
C[C@]12CCCN1CC1=NNC(=O)c3cc(F)cc4[nH]c2c1c34 [Pamiparib] | > 10000 nM
CCN1CCN(Cc2ccc(Nc3ncc(F)c(-c4cc(F)c5nc(C)n(C(C)C)c5c4)n3)nc2)CC1 [Abemaciclib] | 1070 nM
COc1cccc(OCCCN)c1-c1cc(Nc2cnc(C#N)cn2)n[nH]1 [Prexasertib] | 5.33 nM
C[C@@H]1CN(CC(=O)Nc2ccc3c(c2)Cc2cccc(-c4cc(=O)cc(N5CCOCC5)o4)c2S3)C[C@H](C)O1 [KU-60019] | > 10000 nM
CN(C)C(=O)c1cc2cnc(Nc3ccc(N4CCNCC4)cn3)nc2n1C1CCCC1 [Ribociclib] | > 10000 nM
O=C(c1cc(Cc2n[nH]c(=O)c3ccccc23)ccc1F)N1CCN(C(=O)C2CC2)CC1 [Olaparib] | > 10000 nM
CNc1nc(-c2nc3ccc(N4CCN(C)CC4)cc3n2Cc2ccccc2)cn2c(C)nnc12 [BI 894999] | 582 nM

same assay, conditions: HEK293T-eGFP cells, 3 days of incubation, MTT; read-out: IC50

Compound | IC50
COc1ccc(Cn2ccc3ccc(C(=O)NO)cc32)cc1 [PCI-34051] | > 10000 nM
Cc1cc(C)cc(C(=O)NOCCCCCC(=O)NO)c1 [LMK-235] | 1790 nM
Cc1sc2c(c1C)C(c1ccc(Cl)cc1)=N[C@@H](CC(=O)O)c1nnc(C)n1-2 [JQ-1 COOH] | > 10000 nM
CCn1cc(-c2cccc(C(F)(F)F)c2)c2sc(C(=N)NC3CCS(=O)(=O)CC3)cc2c1=O [I-BRD9] | 8940 nM
CN(C)C/C=C/C(=O)Nc1ccc(C(=O)Nc2cccc(Nc3ncc(Cl)c(-c4c[nH]c5ccccc45)n3)c2)cc1 [THZ1] | 37.1 nM
Karonudib | 450 nM
CC(C)c1c(-c2ccccc2)[nH]c2c(C#N)cnn2c1=O [CPI-455] | > 10000 nM
Cc1sc2c(c1C)C(c1ccc(Cl)cc1)=N[C@@H](CC(N)=O)c1nnc(C)n1-2 [CPI-203] | 651 nM
